Values quoted from earlier work as cited in patent publication US20220409591A1, “Pharmaceutical Formulations for Managing Uric Acid Content in Human Body” (ZYCIE TECHNOLEGAL LLP, priority 2019, published 2022).

How the values were obtained:
[1] = known

Cc1nc(-c2ccc(OCC(C)C)c(C#N)c2)sc1C(=O)O [febuxostat, 2-[3-cyano-4-(2-methylpropoxy)phenyl]-4-methylthiazole-5-carboxylic acid]
bioavailability [1]: more than 80% | mean terminal elimination half-life [1]: 5 to 8 h | BCS class (poorly water-soluble drug): BCS Class II
